# Reference: US9579406B2, “Phospholipid ether analogs as agents for detecting and locating cancer, and methods thereof” (Cellectar, Inc., priority 2004, dated 2017)
# Key:
# [1] = tested on: human RL-251 adrenal tumor xenograft; test: Time course in human RL-251 adrenal cancer xenograft; design: species or system SCID mouse; settings: mouse, in vivo
# Excerpt: (§1) NM404 has now been evaluated in 27 animal tumor models, including several lung, and it is clear that once the agent enters tumor cells, it reaches a metabolic dead end and becomes trapped. […] NM404 is also retained in spontaneous murine lung tumors (FIG. 13). Using ^125I-labeled NM404, the inventors have been able to image mammary and prostate tumors in mice in excess of 60 days. […] Imaging and tissue distribution studies performed in mouse models aimed at determining the uptake characteristics in a wide variety of tumor models are summarized in Table 2.
# spontaneous lung tumor = test: Bioscan imaging of spontaneous lung tumor; type: in vivo, Apc^Min mouse; settings: 4 days post injection
# Excerpt: FIG. 13. Bioscan image (A) obtained 4 days post ^125I-NM404 injection into an Apc^Min mouse.
# as §1
# Cervical = test: Tumor models examined with NM404 (Table 2); type: in vivo, Transgenic mouse; settings: Adenocarcinoma
# Excerpt: as §1
# (§2) Although tumor retention can be explained by a lack of metabolic phospholipase enzymes in the tumor cell membranes, the exact mechanism of tumor cell uptake is unknown. […] The inventors are currently evaluating the selectivity of NM404 in a unique mouse tumor model developed at Wisconsin, wherein both preneoplastic hyperplasias and malignant adenocarcinomas form spontaneously in the mammary gland. […] If this initial observation is validated, then via genomic and or proteomic analysis the inventors may be able to identify a key genetic difference between malignant tumors and their non malignant predecessor cells. This could identify a completely new molecular therapeutic target that may be universal for all types of cancer.
# Min Mouse Intestinal = test: Tumor models examined with NM404 (Table 2); type: in vivo, Transgenic mouse; settings: Adenocarcinoma
# Excerpt: as §1, §2
# TRAMP prostate = test: Tumor models examined with NM404 (Table 2); type: in vivo, Transgenic mouse; settings: Adenocarcinoma
# Excerpt: as §1, §2
# Retinoblastoma = test: Tumor models examined with NM404 (Table 2); type: in vivo, Transgenic mouse; settings: Blastoma
# Excerpt: as §1, §2
# TGFα Hepatoma = test: Tumor models examined with NM404 (Table 2); type: in vivo, Transgenic mouse
# Excerpt: as §1, §2
# Pancreas c-myc/k-ras = test: Tumor models examined with NM404 (Table 2); type: in vivo, Transgenic mouse; settings: Ductal/acinar
# Excerpt: as §1, §2
# [2] = tested on: prostate and A549 lung cancer tumors; test: Comparative biodistribution in SCID mouse prostate and A549 lung cancer tumor models; settings: in vivo
# Description: In one such example in a rat mammary tumor model, tumor-to-normal tissue ratios reached a maximum at 96 hours with a tumor-to-blood ratio of 8.6 and tumor-to-muscle ratio of 20:1.
# Extensive biodistribution data for the prototype agent ^125I-NM324 in several tumor models has previously been reported. […] For example, in a rat mammary tumor model, tumor-to-normal tissue ratios reached a maximum at 96 hours with a tumor-to-blood ratio of 8.6 and tumor-to-muscle ratio of 20:1. […] Comparative biodistribution data for NM324 and NM404 in SCID mice have been obtained in prostate and A549 lung cancer tumor models.
# Glioma L9 and CNS-1 = test: Tumor models examined with NM404 (Table 2); type: in vivo, Rat xenograft
# Excerpt: as §1, §2
# Adrenal H-295 = test: Tumor models examined with NM404 (Table 2); type: in vivo, SCID Mouse; settings: Adenocarcinoma
# Excerpt: as §1, §2
# Lung A-549 (NSCC) = test: Tumor models examined with NM404 (Table 2); type: in vivo, SCID Mouse; settings: Adenocarcinoma
# Excerpt: as §1, §2
# Prostate PC-3 = test: Tumor models examined with NM404 (Table 2); type: in vivo, SCID Mouse; settings: Adenocarcinoma
# Excerpt: as §1, §2
# Adrenal RL-251 = test: Tumor models examined with NM404 (Table 2); type: in vivo, SCID Mouse; settings: Adenocarcinoma
# Excerpt: as §1, §2
# [3] = type: in vivo, human
# [4] = Human safety study of unlabeled NM404 in normal volunteers; type: in vivo
# Description: Formal toxicology studies of NM404 in male rats and rabbits were performed at the Toxicology Research Center of the State University of New York at Buffalo under the direction of Dr. Paul Kostyniak. Drug vehicle and drug product were provided to Dr. Kostyniak by Dr. Raymond Counsell of the University of Michigan for testing as described in the appended synopses of Study 27 and Study 28. […] Human safety studies of unlabeled NM404 were initiated in normal male humans at a mass of 10 times the anticipated imaging dose and about 21 times the anticipated therapy dose. […] This toxicology study was performed under GLP conditions.
# Safety assessment in normal male subjects healthy normal female subjects were carried out and it was determined that a dose level of 3 μg/kg of C-NM-404 is safe to administer to male subjects. […] A dose level of 3 μg/kg of C-NM-404 is safe to administer to female subjects.
# lymph node metastases = test: Scintigraphy in metastatic prostate tumor model; settings: in vivo
# Excerpt: A variety of tumors including mammary, prostate, squamous cell carcinoma, ovarian, colorectal, and melanoma were successfully visualized by scintigraphy with NM324.
# This agent has also been evaluated preclinically in a metastatic prostate tumor model in which lymph node metastases were clearly delineated by scintigraphy following intravenous administration of NM404 but, pertinently, the tracer was not retained by uninvolved lymph nodes. Selectivity of NM404 for malignant cells is particularly relevant in prostate cancer as conventional tumor markers such as PSA may also be elevated in a variety of benign disease states including prostatitis and benign prostatic hypertrophy. Furthermore, selective uptake and prolonged retention by tumor cells supports a role for NM404 as a tumor-selective diagnostic and therapeutic agent.
# SCC1 and 6 = test: Tumor models examined with NM404 (Table 2); type: in vivo, Nude mouse xenograft; settings: Squamous cell carcinoma
# Excerpt: as §1, §2
# [5] = Acute GLP toxicology, single iv dose, 14 days observation, rats; type: in vivo; settings: female rats
# Lung NCI H-69 (Oat Cell) = test: Tumor models examined with NM404 (Table 2); type: in vivo, Nude Mouse; settings: Small cell carcinoma
# Excerpt: as §1, §2
# Melanoma A-375 = test: Tumor models examined with NM404 (Table 2); type: in vivo, Nude Mouse
# Excerpt: as §1, §2
# Ovarian HTB-77 = test: Tumor models examined with NM404 (Table 2); type: in vivo, Nude Mouse; settings: Adenocarcinoma
# Excerpt: as §1, §2
# Colon LS-180 = test: Tumor models examined with NM404 (Table 2); type: in vivo, Nude Mouse; settings: Adenocarcinoma
# Excerpt: as §1, §2
# MAT LyLu cells = test: Gamma camera scintigraphy in rat Dunning R3327 (MAT LyLu) prostate cancer model
# Description: The MatLyLu (Dunning R3327 rat) model, a rat prostate tumor line, was used specifically to screen 9 specific analogs prior to entering them into control for dosimetry and tumor-bearing animals for determining tumor/background ratios.
# In order to expedite the screening process and minimize the number of tumor bearing animals utilized in multiple time point tissue distribution studies, new radioiodinated homologs were imaged by gamma camera scintigraphy in the rat Dunning R3337 (MAT LyLu strain) prostate cancer model. […] Gamma camera images were obtained at multiple time points including 24 and 48 hours post injection.
# The new PLE analogs were synthesized and radiolabeled with ^125I for initial image analysis in Copenhagen rats bearing Dunning R3327 prostate tumors.
# [6] = tested on: benign intestinal adenomas, preneoplastic hyperplasias; test: Selectivity for benign and preneoplastic lesions; type: in vivo, mouse
# Excerpt: as §2
smiles,measurement,setting,value
C[N+](C)(C)CCOP(=O)([O-])OCCCCCCCCCCCCCCCCCCc1ccc([125I])cc1 [Compound I-125-NM404],tumor retention,[1],retention is evident even after 20 days
same,uptake into spontaneous lung tumor,spontaneous lung tumor,intense uptake of NM404 into the tumor
"C[N+](C)(C)CCOP(=O)([O-])OCCCCCCCCCCCCCCCCCCc1ccc(I)cc1 [NM-404, 18-(4-iodophenyl)-octadecylphosphocholine]",NM404 Tumor Localization,Cervical,Yes (Localization defined as >5% injected dose per gram tumor basis based on tissue distribution data)
same,NM404 Tumor Localization,Min Mouse Intestinal,Yes (Localization defined as >5% injected dose per gram tumor basis based on tissue distribution data)
same,NM404 Tumor Localization,TRAMP prostate,Yes (Localization defined as >5% injected dose per gram tumor basis based on tissue distribution data)
same,NM404 Tumor Localization,Retinoblastoma,Yes (Localization defined as >5% injected dose per gram tumor basis based on tissue distribution data)
same,NM404 Tumor Localization,TGFα Hepatoma,Yes (Localization defined as >5% injected dose per gram tumor basis based on tissue distribution data)
same,NM404 Tumor Localization,Pancreas c-myc/k-ras,Yes (Localization defined as >5% injected dose per gram tumor basis based on tissue distribution data)
same,tumor uptake,[2],exceeding 25 % of the injected dose
same,NM404 Tumor Localization,Glioma L9 and CNS-1,Yes (Localization defined as >5% injected dose per gram tumor basis based on tissue distribution data)
same,NM404 Tumor Localization,Adrenal H-295,Yes (Localization defined as >5% injected dose per gram tumor basis based on tissue distribution data)
same,NM404 Tumor Localization,Lung A-549 (NSCC),Yes (Localization defined as >5% injected dose per gram tumor basis based on tissue distribution data)
same,NM404 Tumor Localization,Prostate PC-3,Yes (Localization defined as >5% injected dose per gram tumor basis based on tissue distribution data)
same,NM404 Tumor Localization,Adrenal RL-251,Yes (Localization defined as >5% injected dose per gram tumor basis based on tissue distribution data)
same,half-life,"[3]; human, plasma, intravenous, 0.3 μg/kg, average, read-out: plasma elimination half life time (converted)",4.71 days
same,agent cleared renally,[3]; within 4 days of iv injection,4%
same,dose level safe to administer,[4]; female subjects,3 µg/kg
same,dose level safe to administer,[4]; male subjects,3 µg/kg
same,toxicity,"[4]; normal male humans, 10 times the anticipated imaging dose",no toxicity attributable to the drug substance
same,localization in lymph node metastases,lymph node metastases,clearly delineated by scintigraphy in a metastatic prostate tumor model without retention in uninvolved lymph nodes
same,NM404 Tumor Localization,SCC1 and 6,Yes (Localization defined as >5% injected dose per gram tumor basis based on tissue distribution data)
same,adverse effects,[5],no adverse effects attributable to the test article were noted
same,toxic effects,[5]; 0.04 mg/kg (Study 31),no significant toxic effects were noted
same,NM404 Tumor Localization,Lung NCI H-69 (Oat Cell),Yes (Localization defined as >5% injected dose per gram tumor basis based on tissue distribution data)
same,NM404 Tumor Localization,Melanoma A-375,Yes (Localization defined as >5% injected dose per gram tumor basis based on tissue distribution data)
same,NM404 Tumor Localization,Ovarian HTB-77,Yes (Localization defined as >5% injected dose per gram tumor basis based on tissue distribution data)
same,NM404 Tumor Localization,Colon LS-180,Yes (Localization defined as >5% injected dose per gram tumor basis based on tissue distribution data)
same,liver activity and tumor retention in initial image screen,MAT LyLu cells; 125I-labeled,much lower liver activity than its predecessor NM324 but also maintained prolonged tumor retention
same,tumor uptake and liver/abdominal radioactivity by gamma camera imaging,"MAT LyLu cells; tumor-bearing rats, 24 and 48 hours post injection",readily visualized
same,uptake and retention in preneoplastic lesions,"[6]; mammary gland model, preliminary",not taken up and retained in preneoplastic lesions
same,localization in benign intestinal adenomas,"[6]; mouse, in vivo",does not localize in benign intestinal adenomas (polyps)
